The values below come from patent US12428403B2, “N-(heterocyclyl and heterocyclylalkyl)-3-benzylpyridin-2-amine derivatives as SSTR4 agonists” (Takeda Pharmaceutical Company Limited, priority 2020, dated 2025).

Each structure is given as a SMILES string.

Assay [1] concerns the target T1, SSTR4 (Homo sapiens, UniProt P31391). The experiment in a line: cell-based.
Method: This cell-based assay measures the ability of compounds to inhibit forskolin stimulated cAMP in CHO-K1 cells overexpressing SSTR4. CHO-K1 cells overexpressing SSTR4 (CHO-SSTR4) are purchased from DiscoveRx (product code 95-0059C2). The CHO-SSTR4 cells are maintained in F12K media with 10% Fetal Bovine Serum (Hyclone), 1% Pen/Strep (Life Technologies), and 800 μg/mL G418 (Life Technologies). To perform the assay, 3000 cells are plated per well in white 384-well plate (Corning 3570) in 50 complete media and the cells are allowed to attach for 16 hours in a 37° C., 5% CO2 incubator. The next day, the culture media is removed from the cells and the cells are washed (added then removed) with Krebs Ringer Buffer (ZenBio, KRB-1000 mL). Test compounds are suspended in DMSO and diluted in stimulation buffer: Krebs Ringer Buffer plus 0.5% BSA (Roche), 300 μM IBMX (Sigma), and 350 nM forskolin (Sigma). The cells are incubated in 10 μL compound/stimulation buffer for 30 minutes at room temperature. Cellular cAMP levels are detected with a HTRF LANCE Ultra cAMP kit (Perkin Elmer, catalog number TRF0264).
The assay is performed in accordance with the manufacturer's instructions. Five μL of diluted Eu-W8044 labeled streptavidin (dilution: 1:50 in cAMP Detection Buffer) is added to each well. Then 5 μL of diluted biotin cAMP (dilution: 1:150 in cAMP Detection Buffer) is added to each well. The plates are covered and allowed to incubate for 60 minutes at room temperature on a shaker. HTRF (665 nm/615 nm) is read on a Perkin Elmer ENVISION plate reader. The pEC50 values are generated using Activity Base for Screening Data Management.
Assay [2] has as its target T1, SSTR4. The experiment in a line: SSTR4 I-125 somatostatin competition binding assay (CHO-K1 membranes). Details: host or cells: CHO-K1. The settings on record: competition with I-125 labeled somatostatin, membranes from CHO-K1 overexpressing SSTR4; read-out: SSTR4 Binding pIC50 (converted). The source says: SSTR4I-125 Somatostatin Competition Binding Assay
Membranes from CHO-K1 cells overexpressing SSTR4 are purchased from Perkin Elmer (catalog number ES-524-M400UA). […] The scintillator sheets are melted to filters using a heat block.

In another assay the target is SSTR1 (Homo sapiens, UniProt P30872). The experiment in a line: biochemical.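 Further: competitive binding to membranes of CHO-K1 cells overexpressing SSTR1, incubated 60 min at room temperature, radioactivity read by scintillation counting after filtration.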
Sequence of SSTR1 (P30872 whole entry): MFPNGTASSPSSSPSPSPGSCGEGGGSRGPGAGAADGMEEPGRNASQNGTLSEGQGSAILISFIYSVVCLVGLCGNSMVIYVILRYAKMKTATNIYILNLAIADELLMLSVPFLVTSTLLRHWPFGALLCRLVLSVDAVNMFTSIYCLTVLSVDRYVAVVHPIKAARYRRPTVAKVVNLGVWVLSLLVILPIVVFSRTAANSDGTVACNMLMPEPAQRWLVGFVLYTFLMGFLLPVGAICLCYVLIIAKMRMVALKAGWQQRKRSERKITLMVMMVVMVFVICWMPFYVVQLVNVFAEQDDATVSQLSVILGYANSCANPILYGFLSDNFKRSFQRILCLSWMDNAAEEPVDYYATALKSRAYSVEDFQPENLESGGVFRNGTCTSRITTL
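Wherever EC50 is given: CHO-K1 cells overexpressing SSTR4, reduction of forskolin-driven cAMP after 30 min compound exposure at room temperature, cAMP read by HTRF LANCE Ultra kit.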

T1 sequence (P31391 whole entry): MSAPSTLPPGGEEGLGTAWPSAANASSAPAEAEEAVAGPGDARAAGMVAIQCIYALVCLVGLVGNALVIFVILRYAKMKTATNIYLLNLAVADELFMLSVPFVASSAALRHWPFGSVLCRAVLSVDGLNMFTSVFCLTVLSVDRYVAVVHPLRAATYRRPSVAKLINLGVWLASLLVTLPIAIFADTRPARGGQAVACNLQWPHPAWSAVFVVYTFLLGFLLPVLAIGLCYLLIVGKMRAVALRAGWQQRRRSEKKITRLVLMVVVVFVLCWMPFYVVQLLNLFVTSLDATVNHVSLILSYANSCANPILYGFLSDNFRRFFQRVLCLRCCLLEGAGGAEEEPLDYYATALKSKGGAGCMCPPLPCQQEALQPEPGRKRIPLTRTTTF
Method for SSTR1: SSTR1 I-125 Somatostatin Competition Binding Assay for Selectivity Versus SSTR1
Membranes from CHO-K1 cells overexpressing SSTR1 are purchased from Perkin Elmer (catalog number ES-520-M400UA). Test compounds are suspended in DMSO and then diluted in assay buffer (25 mM HEPES pH 7.4, 10 mM MgCl2, 1 mM CaCl2, 0.5% BSA) plus 0.4 nM I-125 labeled somatostatin (Perkin Elmer catalog number NEX389). […] Then 10 μg of SSTR1 membranes in 50 μL assay buffer are added per well. The plate is incubated for 60 minutes at room temperature. […] The contents of the assay plate are transferred to filters with a TomTech harvester and washed 5 times with 20 mM HEPES, 100 mM NaCl. […] The scintillator sheets are melted to the filters using a heat block. The filters are then read in a MicroBeta scintillation counter. Binding Ki curves are generated using Activity Base for Screening Data Management and the results are reported as pIC50.

As to `CCN(C)C(=O)c1nc(C(C)c2ccc(F)cc2)c(NCCN2CCCC2)nc1C` (stereo not drawn) [Example 63, N-ethyl-6-(1-(4-fluorophenyl)ethyl)-N,3-dimethyl-5-((2-(pyrrolidin-1-yl)ethyl)amino)pyrazine-2-carboxamide], the concentration for a half-maximal effect (EC50) on SSTR4 [1] is 1.35 nM. The results for the IC50 at SSTR4 [2] and against SSTR1 were 18.2 nM and 5370 nM, respectively.
On the same counts, the results for `Cc1nc(NCCN2CCCC2)c(C(C)c2ccc(F)cc2)nc1C(=O)N[C@H]1C[C@@H](F)C1` (stereo partly drawn) [Example 64, N-(cis-3-fluorocyclobutyl)-6-(1-(4-fluorophenyl)ethyl)-3-methyl-5-((2-(pyrrolidin-1-yl)ethyl)amino)pyrazine-2-carboxamide] are 13.8 nM, 33.9 nM and 1260 nM.
On SSTR4 [1], `Cc1nc(NCCN2CCCC2)c(C(C)c2ccc(F)cc2)nc1C(=O)N(C)C1CC1` (stereo not drawn) [Example 65, N-cyclopropyl-6-(1-(4-fluorophenyl)ethyl)-N,3-dimethyl-5-((2-(pyrrolidin-1-yl)ethyl)amino)pyrazine-2-carboxamide] gave an EC50 of 1.62 nM. Further, the IC50 on SSTR4 [2] was 17 nM; on SSTR1 it was 3390 nM.
Taken in the same sequence, the figures for `Cc1nc(NCCN2CCCC2)c(C(C)c2ccc(F)cc2)nc1C(=O)N1CC[C@H](F)C1` (stereo partly drawn) [Example 66, (6-(1-(4-fluorophenyl)ethyl)-3-methyl-5-((2-(pyrrolidin-1-yl)ethyl)amino)pyrazin-2-yl)((S)-3-fluoropyrrolidin-1-yl)methanone] were 4.17 nM, 36.3 nM and 3470 nM.
Taken in the same sequence, the figures for `Cc1nc(NCCN2CCCC2)c(C(C)c2ccc(F)cc2)nc1C(=O)N(C)C(C)C` (stereo not drawn) [Example 67, 6-(1-(4-fluorophenyl)ethyl)-N-isopropyl-N,3-dimethyl-5-((2-(pyrrolidin-1-yl)ethyl)amino)pyrazine-2-carboxamide] were 1.7 nM, 10 nM and 3630 nM.
Taken in the same sequence, the figures for `CO[C@H]1CCN(C(=O)c2nc(C(C)c3ccc(F)cc3)c(NCCN3CCCC3)nc2C)C1` (stereo partly drawn) [Example 68, (6-(1-(4-fluorophenyl)ethyl)-3-methyl-5-((2-(pyrrolidin-1-yl)ethyl)amino)pyrazin-2-yl)((S)-3-methoxypyrrolidin-1-yl)methanone] were 0.676 nM, 31.6 nM and 3550 nM.
With `Cc1nc(NCCN2CCCC2)c(C(C)c2ccc(F)cc2)nc1C(=O)N[C@H]1CCOC1` (stereo partly drawn) [Example 69, 6-(1-(4-fluorophenyl)ethyl)-3-methyl-5-((2-(pyrrolidin-1-yl)ethyl)amino)-N-((S)-tetrahydrofuran-3-yl)pyrazine-2-carboxamide], the EC50 at SSTR4 [1] is 8.71 nM. Moreover, the IC50 at SSTR4 [2] is 135 nM; at SSTR1, 2400 nM.
Taken in the same sequence, the figures for `CO[C@H]1C[C@H](NC(=O)c2nc(C(C)c3ccc(F)cc3)c(NCCN3CCCC3)nc2C)C1` (stereo partly drawn) [Example 71, 6-(1-(4-fluorophenyl)ethyl)-N-(trans-3-methoxycyclobutyl)-3-methyl-5-((2-(pyrrolidin-1-yl)ethyl)amino)pyrazine-2-carboxamide] were 4.27 nM, 31.6 nM and 2450 nM.
On the same counts, the results for `CO[C@@H]1CCN(C(=O)c2nc(C(C)c3ccc(F)cc3)c(NCCN3CCCC3)nc2C)C1` (stereo partly drawn) [Example 72, (6-(1-(4-fluorophenyl)ethyl)-3-methyl-5-((2-(pyrrolidin-1-yl)ethyl)amino)pyrazin-2-yl)((R)-3-methoxypyrrolidin-1-yl)methanone] are 3.39 nM, 64.6 nM and 4790 nM.
On the same counts, the results for `Cc1nc(NCCN2CCCC2)c(C(C)c2ccc(F)cc2)nc1C(=O)NC1CC(F)(F)C1` (stereo not drawn) [Example 73, N-(3,3-difluorocyclobutyl)-6-(1-(4-fluorophenyl)ethyl)-3-methyl-5-((2-(pyrrolidin-1-yl)ethyl)amino)pyrazine-2-carboxamide] are 9.77 nM, 47.9 nM and 1100 nM.
Turning to `Cc1nc(NCCN2CCCC2)c(C(C)c2ccc(F)cc2)nc1C(=O)N1CC[C@@H](F)C1` (stereo partly drawn) [Example 74, (6-(1-(4-fluorophenyl)ethyl)-3-methyl-5-((2-(pyrrolidin-1-yl)ethyl)amino)pyrazin-2-yl)((R)-3-fluoropyrrolidin-1-yl)methanone], a half-maximal response at SSTR4 [1] (EC50) required 3.24 nM. Moreover, the IC50 at SSTR4 [2] was 63.1 nM; at SSTR1, 4370 nM.
Turning to `Cc1nc(Cc2ccc(F)cc2)c(NCCN2CCC2)nc1C` [Example 78, N-(2-(azetidin-1-yl)ethyl)-3-(4-fluorobenzyl)-5,6-dimethylpyrazin-2-amine], a half-maximal response at SSTR4 [1] (EC50) required 12.6 nM. In addition, the IC50 on SSTR4 [2] is 77.6 nM; against SSTR1 it was 28200 nM.
Taken in the same sequence, the figures for `Cc1cccc(Cc2ncc(C(C)C)nc2NCCN2CCC2)c1` [Example 87, N-(2-(azetidin-1-yl)ethyl)-6-isopropyl-3-(3-methylbenzyl)pyrazin-2-amine] were 5.01 nM, 10.5 nM and 3720 nM.
On to `Cc1nc(NCCN2CCC2)c(Cc2ccc(F)cc2)nc1C#N` [Example 96, 5-((2-(azetidin-1-yl)ethyl)amino)-6-(4-fluorobenzyl)-3-methylpyrazine-2-carbonitrile], for which, at SSTR4 [1], it took 27.5 nM to reach a half-maximal effect (EC50). Besides, the results for the IC50 on SSTR4 [2] and against SSTR1 were 61.7 nM and 11000 nM, respectively.
On the same counts, the results for `CC(c1ccc(F)cc1)c1nccnc1NCCN1CCCC1` (stereo not drawn) [Example 119, 3-(1-(4-fluorophenyl)ethyl)-N-(2-(pyrrolidin-1-yl)ethyl)pyrazin-2-amine] are 8.71 nM, 151 nM and 12000 nM.
Turning to `CC(c1ccc(F)cc1)c1nc(-c2ncco2)cnc1NCCN1CCCC1` (stereo not drawn) [Example 123, 3-(1-(4-fluorophenyl)ethyl)-5-(oxazol-2-yl)-N-(2-(pyrrolidin-1-yl)ethyl)pyrazin-2-amine], at SSTR4 [1], the EC50 was 20.9 nM. Further, the IC50 on SSTR4 [2] was 123 nM; against SSTR1, 3310 nM.
For `CC(c1ccc(F)cc1)c1nc(-c2nccn2C)cnc1NCCN1CCCC1` (stereo not drawn) [Example 124, 3-(1-(4-fluorophenyl)ethyl)-5-(1-methyl-1H-imidazol-2-yl)-N-(2-(pyrrolidin-1-yl)ethyl)pyrazin-2-amine], it took 36.3 nM to reach a half-maximal effect on SSTR4 [1] (EC50). In addition, the IC50 on SSTR4 [2] is 245 nM; at SSTR1, 3470 nM.
On the same counts, the results for `CC(c1ccc(F)cc1)c1nc(-c2nccs2)cnc1NCCN1CCCC1` (stereo not drawn) [Example 125, 3-(1-(4-fluorophenyl)ethyl)-N-(2-(pyrrolidin-1-yl)ethyl)-5-(thiazol-2-yl)pyrazin-2-amine] are 42.7 nM, 38 nM and 1230 nM.
Take `Cc1cnc(-c2cnc(NCCN3CCCC3)c(C(C)c3ccc(F)cc3)n2)o1` (stereo not drawn) [Example 126, 3-(1-(4-fluorophenyl)ethyl)-5-(5-methyloxazol-2-yl)-N-(2-(pyrrolidin-1-yl)ethyl)pyrazin-2-amine]: the response on SSTR4 [1] was half-maximal at 29.5 nM (EC50). The IC50 on SSTR4 [2] is 110 nM; at SSTR1, 2630 nM.
With `Cc1cnc(-c2nc(C(C)c3ccc(F)cc3)c(NCCN3CCCC3)nc2C)o1` (stereo not drawn) [Example 129, 3-(1-(4-fluorophenyl)ethyl)-6-methyl-5-(5-methyloxazol-2-yl)-N-(2-(pyrrolidin-1-yl)ethyl)pyrazin-2-amine], at SSTR4 [1], the EC50 is 10 nM. The IC50 at SSTR4 [2] was 35.5 nM; against SSTR1, 2290 nM.
Taken in the same sequence, the figures for `Cc1nnc(C(C)c2ccc(F)cc2)c(NCCN2CCC2)n1` (stereo not drawn) [Example 132, N-(2-(azetidin-1-yl)ethyl)-6-(1-(4-fluorophenyl)ethyl)-3-methyl-1,2,4-triazin-5-amine] were 1.95 nM, 28.2 nM and 47900 nM.
On the same counts, the results for `Fc1ccc(Cc2nnc(C3CC3)nc2NCCN2CCC2)cc1` [Example 138, N-(2-(azetidin-1-yl)ethyl)-3-cyclopropyl-6-(4-fluorobenzyl)-1,2,4-triazin-5-amine] are 16.2 nM, 89.1 nM and 5010 nM.
Taken in the same sequence, the figures for `Cc1nnc(C(C)c2ccccc2)c(NCCN2CCC2)n1` (stereo not drawn) [Example 143, N-(2-(azetidin-1-yl)ethyl)-3-methyl-6-(1-phenylethyl)-1,2,4-triazin-5-amine] were 4.27 nM, 49 nM and 10000 nM.
For `Cc1cccc(Cc2nnc(C)nc2NCCN2CCC2)c1` [Example 148, N-(2-(azetidin-1-yl)ethyl)-3-methyl-6-(3-methylbenzyl)-1,2,4-triazin-5-amine], on SSTR4 [1], the 50% effective concentration (EC50) is 10 nM. Moreover, the IC50 at SSTR4 [2] was 42.7 nM; on SSTR1, 15100 nM.
